Data on ten compounds can be found in ChEMBL document CHEMBL3886313, “Ketone linked benzothiazole inhibitors of endothelial lipase” (2015).

This assay concerns the target T1, Endothelial lipase (Homo sapiens, UniProt Q9Y5X9).
T1 sequence (Q9Y5X9 whole entry): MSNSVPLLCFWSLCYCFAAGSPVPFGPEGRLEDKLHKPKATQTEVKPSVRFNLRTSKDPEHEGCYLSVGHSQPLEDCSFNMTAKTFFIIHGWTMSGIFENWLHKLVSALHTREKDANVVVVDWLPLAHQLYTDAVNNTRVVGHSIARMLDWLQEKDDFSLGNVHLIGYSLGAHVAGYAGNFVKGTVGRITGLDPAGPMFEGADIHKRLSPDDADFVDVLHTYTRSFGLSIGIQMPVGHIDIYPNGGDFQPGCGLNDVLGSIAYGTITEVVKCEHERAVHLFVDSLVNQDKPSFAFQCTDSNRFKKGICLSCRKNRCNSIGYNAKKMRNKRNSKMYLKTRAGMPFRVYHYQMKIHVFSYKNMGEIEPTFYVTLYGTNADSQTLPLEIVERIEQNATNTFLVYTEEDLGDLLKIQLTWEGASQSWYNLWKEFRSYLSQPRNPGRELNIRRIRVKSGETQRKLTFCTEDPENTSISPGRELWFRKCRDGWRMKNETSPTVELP
Put plainly: Enzymatic Assay: The enzymatic assay was measured using white, opaque 96-well half area plates. Each well contained 60 μL of assay buffer (50 mM HEPES pH 8.0, 50 mM NaCl and 1 mM CaCl2) and 2 ul of a DMSO solution containing compound of interest. Conditioned media obtained from HT-1080 cells, which were transformed by RAGE technology (Athersys) to overexpress endogenous EL, was added and the reaction was allowed to incubate for 20 min at 37° C. with gentle agitation. The reaction was started by the addition of 20 μL of a 1:4 dilution of vesicles. The final total reaction volume was 100 μL. The reaction rates were measured on a Gemini plate reader with an excitation wavelength of 488 nm and an emission of 530 nm. Readings were taken every 20 seconds for 10 min with agitation between each reading. It counts as cell-based.

Molecules are shown by their SMILES.

As to `COc1nc(-c2nnc(C(=O)c3nc4ccc(-c5ccc(F)cc5)cc4s3)o2)c(OCc2ccccc2)c(=O)[nH]1`, the IC50 (as a rule, the point on the concentration scale where inhibition reaches its midpoint) turned out to be 122 nM.

Turning to `CC(C)(C)CN1CC(c2nnc(C(=O)c3nc4ccc(-c5ccc(F)cc5)cc4s3)o2)C1`, the IC50 is 4.8 nM.

As to `C[C@H](NC(=O)OC(C)(C)C)c1nnc(C(=O)c2nc3ccc(-c4ccccc4)cc3s2)o1`, the IC50 was 66 nM.

Compound `O=C1NC(=O)C(Cc2nnc(C(=O)c3nc4ccc(-c5ccccc5)cc4s3)o2)S1` (stereo not given) had an IC50 of less than 10 nM.

In turn, `CC(C)(C)CN1CC(c2nnc(C(=O)c3nc4c(F)cc(-c5ccccc5)cc4s3)o2)C1` gave an IC50 of 18 nM.

In turn, `CC1(Cc2nnc(C(=O)c3nc4ccc(-c5ccccc5)cc4s3)o2)NC(=O)N(CC(F)(F)F)C1=O` (stereo not given) yielded an IC50 of less than 10 nM.

In turn, `NS(=O)(=O)Cc1nnc(C(=O)c2nc3ccc(-c4ccccc4)cc3s2)o1` showed an IC50 of less than 10 nM.

The compound `COc1nc(-c2nnc(C(=O)c3nc4ccc(-c5ccccc5)cc4s3)o2)c(OCc2ccccc2)c(=O)[nH]1` had an IC50 of 76 nM.

`O=C1NC(=O)C(Cc2nnc(C(=O)c3nc4ccc(-c5ccccc5)cc4s3)o2)N1` (stereo not given): the IC50 was less than 10 nM.

For the compound `C[C@@H](NC(=O)OC(C)(C)C)c1nnc(C(=O)c2nc3ccc(-c4ccccc4)cc3s2)o1`, the IC50 was less than 10 nM.
